Test results reported in PubChem BioAssay (NCI).
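The compound was tested at five concentrations on cells cultured in 96-well plates, with a 48-hour exposure period. At the TGI there is no net growth.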

Tests used:
Assay in all cases: DTP human tumour cell line panel, 48 h
SF-295 CNS = test system: SF-295 CNS
KM20L2 colon = test system: KM20L2 colon
HCT-116 colon = test system: HCT-116 colon
SF-268 CNS = test system: SF-268 CNS
IGROV1 ovarian = test system: IGROV1 ovarian
K-562 leukemia = test system: K-562 leukemia
RXF 393 renal = test system: RXF 393 renal
COLO 205 colon = test system: COLO 205 colon
OVCAR-4 ovarian = test system: OVCAR-4 ovarian
U251 CNS = test system: U251 CNS
DMS 273 small cell lung = test system: DMS 273 small cell lung
UACC-62 melanoma = test system: UACC-62 melanoma
HOP-92 NSCLC = test system: HOP-92 NSCLC
DLD-1 colon = test system: DLD-1 colon
786-0 renal = test system: 786-0 renal
HT29 colon = test system: HT29 colon
KM12 colon = test system: KM12 colon
HOP-62 NSCLC = test system: HOP-62 NSCLC
UACC-257 melanoma = test system: UACC-257 melanoma
SK-MEL-2 melanoma = test system: SK-MEL-2 melanoma
OVCAR-5 ovarian = test system: OVCAR-5 ovarian
OVCAR-8 ovarian = test system: OVCAR-8 ovarian
A549 NSCLC = test system: A549 NSCLC
M19-MEL melanoma = test system: M19-MEL melanoma
OVCAR-3 ovarian = test system: OVCAR-3 ovarian
HOP-18 NSCLC = test system: HOP-18 NSCLC
HCT-15 colon = test system: HCT-15 colon
SN12C renal = test system: SN12C renal
SNB-78 CNS = test system: SNB-78 CNS
CCRF-CEM leukemia = test system: CCRF-CEM leukemia
DMS 114 small cell lung = test system: DMS 114 small cell lung
SF-539 CNS = test system: SF-539 CNS
ACHN renal = test system: ACHN renal
SK-MEL-28 melanoma = test system: SK-MEL-28 melanoma
EKVX NSCLC = test system: EKVX NSCLC
SW-620 colon = test system: SW-620 colon
MALME-3M melanoma = test system: MALME-3M melanoma
SR leukemia = test system: SR leukemia
RPMI-8226 leukemia = test system: RPMI-8226 leukemia
TK-10 renal = test system: TK-10 renal
NCI-H23 lung = test system: NCI-H23 lung
SK-MEL-5 melanoma = test system: SK-MEL-5 melanoma
A498 renal = test system: A498 renal
SNB-19 CNS = test system: SNB-19 CNS
LOX IMVI melanoma = test system: LOX IMVI melanoma
SNB-75 CNS = test system: SNB-75 CNS
NCI-H460 lung = test system: NCI-H460 lung
CAKI-1 renal = test system: CAKI-1 renal
MOLT-4 leukemia = test system: MOLT-4 leukemia
HCC-2998 colon = test system: HCC-2998 colon
NCI-H522 lung = test system: NCI-H522 lung
SK-OV-3 ovarian = test system: SK-OV-3 ovarian
NCI-H226 lung = test system: NCI-H226 lung
UO-31 renal = test system: UO-31 renal
HL-60(TB) leukemia = test system: HL-60(TB) leukemia
M14 melanoma = test system: M14 melanoma

Measured: TGI

C=CCCc1cc(OC)ccc1CN(C)C(C)(C)CO
not listed: MOLT-4 leukemia | HCC-2998 colon | NCI-H522 lung | SK-OV-3 ovarian | NCI-H226 lung | UO-31 renal | HL-60(TB) leukemia | M14 melanoma
> 100 µM: all other assays above

CN(C)C1(C#N)CCC2(CC1)OCCO2
not listed: DLD-1 colon | HOP-18 NSCLC | DMS 114 small cell lung
> 100 µM: all other assays above
